Results on 24 compounds are retold here after ChEMBL document CHEMBL1770097, “Non-competitive and selective dipeptidyl peptidase IV inhibitors with phenethylphenylphthalimide skeleton derived from thalidomide-related α-glucosidase inhibitors and liver X receptor antagonists” (Bioorg Med Chem Lett, 2011).

One may read the inhibition as the change of the read-out against control, counted positive when it falls. One may read the IC50 as the concentration that inhibits the measured activity by half.

Activity calls are given as the source filed them. The rule behind the calls is not given here. Some results are limits rather than exact numbers.

One assay has as its target T1, Dipeptidyl peptidase 4 (Homo sapiens, UniProt P27487). As to the kind of experiment: Inhibition of DPP4 at 10 uM assessed as […] release after 1 hr relative to control.
Target sequence in this assay (P27487 whole entry, looked up): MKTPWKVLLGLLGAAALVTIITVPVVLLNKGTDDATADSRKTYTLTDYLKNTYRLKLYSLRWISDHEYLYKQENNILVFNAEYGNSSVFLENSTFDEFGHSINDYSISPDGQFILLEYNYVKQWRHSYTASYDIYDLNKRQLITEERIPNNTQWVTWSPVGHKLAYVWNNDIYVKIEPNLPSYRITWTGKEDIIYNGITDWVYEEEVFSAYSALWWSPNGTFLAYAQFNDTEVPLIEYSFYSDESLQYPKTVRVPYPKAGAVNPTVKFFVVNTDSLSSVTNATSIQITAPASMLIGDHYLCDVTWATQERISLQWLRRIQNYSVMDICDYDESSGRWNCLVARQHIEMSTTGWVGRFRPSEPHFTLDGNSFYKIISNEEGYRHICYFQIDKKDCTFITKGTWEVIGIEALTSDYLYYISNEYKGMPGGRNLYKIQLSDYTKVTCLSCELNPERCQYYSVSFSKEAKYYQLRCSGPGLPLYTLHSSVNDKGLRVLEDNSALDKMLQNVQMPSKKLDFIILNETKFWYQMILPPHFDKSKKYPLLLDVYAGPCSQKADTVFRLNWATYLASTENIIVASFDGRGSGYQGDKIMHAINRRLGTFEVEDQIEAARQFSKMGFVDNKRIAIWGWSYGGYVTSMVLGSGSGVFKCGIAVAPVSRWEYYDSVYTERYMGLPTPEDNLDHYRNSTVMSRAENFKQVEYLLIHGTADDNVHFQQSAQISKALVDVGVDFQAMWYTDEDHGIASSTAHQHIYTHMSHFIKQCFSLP
For `O=C1c2ccccc2C(=O)N1c1cccc(CCc2ccccc2)c1`, the inhibition turned out to be 2%.

Consider `O=C1c2ccccc2C(=O)N1c1cccc(CCc2ccc(O)c(O)c2)c1`, for which the inhibition turned out to be 7%. Consider `O=C1c2c(Cl)c(Cl)c(Cl)c(Cl)c2C(=O)N1c1cccc(CCc2cccc(C(F)(F)F)c2)c1`, for which the inhibition stood at 87%.

Take `COc1ccc(CCc2cccc(N3C(=O)c4c(Cl)c(Cl)c(Cl)c(Cl)c4C3=O)c2)cc1OC`: the inhibition worked out at 0%.

On to `COc1ccc(CCc2ccc(N3C(=O)c4c(Cl)c(Cl)c(Cl)c(Cl)c4C3=O)cc2)cc1OC`, for which the inhibition stood at 3%. As to `O=C1c2c(Cl)c(Cl)c(Cl)c(Cl)c2C(=O)N1c1cccc(CCc2ccccc2C(F)(F)F)c1`, the inhibition turned out to be 86%. Same read-out and setting: in the case of `O=C1c2c(Cl)c(Cl)c(Cl)c(Cl)c2C(=O)N1c1ccccc1CCc1ccc(O)c(O)c1` it was 12%. For the compound `COc1ccc(CCc2ccccc2N2C(=O)c3ccccc3C2=O)cc1OC`, the inhibition turned out to be 0%. Still for that read-out and setting: the value for `O=C1c2ccccc2C(=O)N1c1ccc(CCc2ccccc2)cc1` was 6%.

On to `O=C1c2c(Cl)c(Cl)c(Cl)c(Cl)c2C(=O)N1c1cccc(CCc2ccc(C(F)(F)F)cc2)c1`, for which the inhibition was found to be 38%. In the case of `O=C1c2c(Cl)c(Cl)c(Cl)c(Cl)c2C(=O)N1c1cccc(CCc2c(F)c(F)c(F)c(F)c2F)c1`, the inhibition is 19%. For `O=C1c2c(Cl)c(Cl)c(Cl)c(Cl)c2C(=O)N1c1ccccc1CCc1ccccc1`, the inhibition stood at 7%. For `O=C1c2ccccc2C(=O)N1c1ccccc1CCc1ccc(O)c(O)c1`, the inhibition stood at 4%.

Take `O=C1c2ccccc2C(=O)N1c1ccccc1CCc1ccccc1`: the inhibition is 0%.

For the compound `COc1ccc(CCc2ccc(N3C(=O)c4ccccc4C3=O)cc2)cc1OC`, the inhibition is 0%. On the same count and under the same terms, the value for `COc1ccc(CCc2cccc(N3C(=O)c4ccccc4C3=O)c2)cc1OC` was 0%; that for `O=C1c2ccccc2C(=O)N1c1ccc(CCc2ccc(O)c(O)c2)cc1` was 7%. The same measure, in the same setting: in the case of `O=C1c2c(Cl)c(Cl)c(Cl)c(Cl)c2C(=O)N1c1ccc(CCc2ccccc2)cc1` it was 12%; in that of `O=C1c2c(Cl)c(Cl)c(Cl)c(Cl)c2C(=O)N1c1cccc(CCc2ccc(O)c(O)c2)c1`, 5%. On to `COc1ccc(CCc2ccccc2N2C(=O)c3c(Cl)c(Cl)c(Cl)c(Cl)c3C2=O)cc1OC`, for which the inhibition worked out at 2%. Still for that read-out and setting: the value for `O=C1c2c(Cl)c(Cl)c(Cl)c(Cl)c2C(=O)N1c1ccc(CCc2ccc(O)c(O)c2)cc1` was 11%. Still for that read-out and setting: the value for `O=C1c2c(Cl)c(Cl)c(Cl)c(Cl)c2C(=O)N1c1cccc(CCc2ccc(F)cc2)c1` was 20%. Turning to `O=C1c2c(Cl)c(Cl)c(Cl)c(Cl)c2C(=O)N1c1cccc(CCc2ccccc2)c1`, the inhibition amounted to 26%. On the same count and under the same terms, in the case of `Cc1ccc(CCc2cccc(N3C(=O)c4c(Cl)c(Cl)c(Cl)c(Cl)c4C3=O)c2)cc1` it was 25%.

System in a further assay: not listed separately
Briefly: Selectivity ratio of IC50 for DPP4 over IC50 for DPP8.
On to `O=C1c2c(Cl)c(Cl)c(Cl)c(Cl)c2C(=O)N1c1cccc(CCc2cccc(C(F)(F)F)c2)c1`, for which the Ratio IC50 amounted to 10.

The next assay deals with Dipeptidyl peptidase 8 (Homo sapiens, UniProt Q6V1X1). As to the kind of experiment: Inhibition of DPP8 assessed as […] release after 1 hr.
Dipeptidyl peptidase 8, sequence (Q6V1X1 whole entry): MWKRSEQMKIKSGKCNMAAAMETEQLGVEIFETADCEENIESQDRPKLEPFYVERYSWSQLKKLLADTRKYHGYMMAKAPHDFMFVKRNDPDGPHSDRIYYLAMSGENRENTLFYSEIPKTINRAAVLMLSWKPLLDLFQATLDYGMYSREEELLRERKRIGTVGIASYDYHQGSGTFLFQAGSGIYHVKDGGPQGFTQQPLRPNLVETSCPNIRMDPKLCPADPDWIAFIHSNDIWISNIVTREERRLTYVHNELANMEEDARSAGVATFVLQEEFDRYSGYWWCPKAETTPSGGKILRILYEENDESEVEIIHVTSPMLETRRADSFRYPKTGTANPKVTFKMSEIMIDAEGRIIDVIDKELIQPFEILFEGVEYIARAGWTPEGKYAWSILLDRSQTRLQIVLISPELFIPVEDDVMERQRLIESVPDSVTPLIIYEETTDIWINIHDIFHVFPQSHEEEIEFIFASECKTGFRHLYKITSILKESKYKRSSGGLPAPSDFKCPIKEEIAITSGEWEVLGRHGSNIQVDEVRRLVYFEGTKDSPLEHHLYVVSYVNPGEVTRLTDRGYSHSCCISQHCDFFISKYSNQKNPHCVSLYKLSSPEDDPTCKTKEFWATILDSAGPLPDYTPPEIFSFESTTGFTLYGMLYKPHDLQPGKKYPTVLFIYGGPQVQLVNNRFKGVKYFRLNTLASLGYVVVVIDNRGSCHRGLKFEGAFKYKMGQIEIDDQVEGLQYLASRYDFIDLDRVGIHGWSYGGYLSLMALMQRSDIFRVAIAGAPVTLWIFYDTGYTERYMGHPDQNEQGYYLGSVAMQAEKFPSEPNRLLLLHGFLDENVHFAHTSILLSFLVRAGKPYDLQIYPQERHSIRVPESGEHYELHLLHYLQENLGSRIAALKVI
For `O=C1c2c(Cl)c(Cl)c(Cl)c(Cl)c2C(=O)N1c1cccc(CCc2cccc(C(F)(F)F)c2)c1`, the IC50 was more than 30 µM.

The target of the next assay is T1, Dipeptidyl peptidase 4. Briefly: Inhibition of DPP4 assessed as […] release after 1 hr.
For `O=C1c2c(Cl)c(Cl)c(Cl)c(Cl)c2C(=O)N1c1cccc(CCc2cccc(C(F)(F)F)c2)c1`, the IC50 was 3.1 µM and the inhibition entry is “Active”. The corresponding values for `O=C1c2c(Cl)c(Cl)c(Cl)c(Cl)c2C(=O)N1c1cccc(CCc2ccccc2C(F)(F)F)c1` are 4 µM and “Active”.
